Data reported in patent publication US8785501B2 (Duquesne University of the Holy Spirit, priority 2009, dated 2014).

Test system: mammary estrogen-regulated genes (lactoferrin and progesterone receptor)
Assay: Expression of estrogen-regulated genes in mammary tissue of ovariectomized FVB/n mice
Type: in vivo, mouse
Conditions: FVB/n OVX mice, n=4, data not shown; versus control (vehicle) and melatonin alone
Source text: Previous studies with melatonin or tamoxifen alone were done in MMTV/neu mice. MMTV/neu mice spontaneously develop HER2/neu mammary cancer beginning at 5 months of […] and have a maximal incidence of >90% after 14 months of age. In this mouse model, tamoxifen and melatonin alone can influence mammary tumor development, growth and/or metastatic progression.

SMILES: CC/C(=C(\c1ccccc1)c1ccc(OCCN(C)C)cc1)c1ccccc1 [tamoxifen]
- progesterone receptor (PR) RNA levels in mammary tissue: significantly different than the control
